Key:
Assay type in all cases: in vivo
[1] = tested on: corn (Zea mays); assay: Test A postemergence application, visual injury rating 0-100; conditions: Postemergence, 10 days, 0 is no effect, 100 is complete control
How it was run: (§1)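 Grow plants in loam soil blended with sand. Apply formulated compound (non-phytotoxic solvent, surfactant) as a directed soil spray before emergence, or to plants at the one- to two-leaf stage after emergence. Hold in greenhouse 10 days, then rate injury visually versus untreated controls on a 0-100 scale.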

[2] = tested on: oat, wild (wild oat, Avena fatua); assay: as above; conditions: Postemergence, 10 days, 0 is no effect, 100 is complete control
How it was run: as §1

[3] = tested on: ragweed (common ragweed, Ambrosia artemisiifolia); assay: as above; conditions: Postemergence, 10 days, 0 is no effect, 100 is complete control
How it was run: as §1

[4] = tested on: goosegrass (Eleusine indica); assay: as above; conditions: 10 days, 0 is no effect, 100 is complete control
How it was run: as §1

[5] = tested on: wheat (Triticum aestivum); assay: as above; conditions: Postemergence, 10 days, 0 is no effect, 100 is complete control
How it was run: as §1

[6] = tested on: palmer (palmer amaranth, palmer pigweed, Amaranthus palmeri); assay: as above; conditions: Postemergence, 10 days, 0 is no effect, 100 is complete control
How it was run: as §1

[7] = tested on: blackgrass (Alopecurus myosuroides); assay: as above; conditions: Postemergence, 10 days, 0 is no effect, 100 is complete control
How it was run: as §1

[8] = tested on: soybean (Glycine max); assay: as above; conditions: Postemergence, 10 days, 0 is no effect, 100 is complete control
How it was run: as §1

[9] = tested on: galium (catchweed bedstraw, Galium aparine); assay: as above; conditions: Postemergence, 10 days, 0 is no effect, 100 is complete control
How it was run: as §1

[10] = tested on: foxtail, giant (giant foxtail, Setaria faberi); assay: as above; conditions: 10 days, 0 is no effect, 100 is complete control
How it was run: as §1

[11] = tested on: kochia (Bassia scoparia); assay: as above; conditions: Postemergence, 10 days, 0 is no effect, 100 is complete control
How it was run: as §1

[12] = tested on: horseweed (Erigeron canadensis); assay: as above; conditions: Postemergence, 10 days, 0 is no effect, 100 is complete control
How it was run: as §1

[13] = tested on: ryegrass, Italian (italian ryegrass, Lolium multiflorum); assay: as above; conditions: Postemergence, 10 days, 0 is no effect, 100 is complete control
How it was run: as §1

[14] = tested on: corn (Zea mays); assay: Test A preemergence soil spray, visual injury rating 0-100; conditions: 10 days, 0 = no effect, 100 = complete control
How it was run: as §1

[15] = tested on: oat, wild (wild oat, Avena fatua); assay: as above; conditions: 10 days, 0 = no effect, 100 = complete control
How it was run: as §1

[16] = tested on: ragweed (common ragweed, Ambrosia artemisiifolia); assay: as above; conditions: 10 days, 0 = no effect, 100 = complete control
How it was run: as §1

[17] = tested on: goosegrass (Eleusine indica); assay: as above; conditions: 10 days, 0 = no effect, 100 = complete control
How it was run: as §1

[18] = tested on: wheat (Triticum aestivum); assay: as above; conditions: 10 days, 0 = no effect, 100 = complete control
How it was run: as §1

[19] = tested on: palmer (palmer amaranth, palmer pigweed, Amaranthus palmeri); assay: as above; conditions: 10 days, 0 = no effect, 100 = complete control
How it was run: as §1

[20] = tested on: blackgrass (Alopecurus myosuroides); assay: as above; conditions: 10 days, 0 = no effect, 100 = complete control
How it was run: as §1

[21] = tested on: soybean (Glycine max); assay: as above; conditions: 10 days, 0 = no effect, 100 = complete control
How it was run: as §1

[22] = tested on: foxtail, giant (giant foxtail, Setaria faberi); assay: as above; conditions: 10 days, 0 = no effect, 100 = complete control
How it was run: as §1

[23] = tested on: kochia (Bassia scoparia); assay: as above; conditions: 10 days, 0 = no effect, 100 = complete control
How it was run: as §1

[24] = tested on: ryegrass, Italian (italian ryegrass, Lolium multiflorum); assay: as above; conditions: 10 days, 0 = no effect, 100 = complete control
How it was run: as §1

CONC(=O)C1C=CC(NC(=O)C2(C)CN(c3cc(F)cc(F)c3)C(=O)O2)C1 (stereo not drawn) [Compound 25]
90: Oat, Wild plant response rating (0 to 100 scale) ([2]; 125 g ai/ha) | Goosegrass plant response rating (0 to 100 scale) ([4]; 125 g ai/ha) | Goosegrass plant response rating (0 to 100 scale) ([4]; 500 g ai/ha) | Amaranth, Palmer / Pigweed, Palmer plant response rating (0 to 100 scale) ([6]; 125 g ai/ha) | Amaranth, Palmer / Pigweed, Palmer plant response rating (0 to 100 scale) ([6]; 500 g ai/ha) | Blackgrass plant response rating (0 to 100 scale) ([7]; 500 g ai/ha) | Foxtail, Giant plant response rating (0 to 100 scale) ([10]; 125 g ai/ha) | Foxtail, Giant plant response rating (0 to 100 scale) ([10]; 500 g ai/ha) | Kochia plant response rating (0 to 100 scale) ([11]; 500 g ai/ha) | Corn plant response rating (0 to 100 scale) ([14]; 500 g ai/ha) | Oat, Wild plant response rating (0 to 100 scale) ([15]; 500 g ai/ha) | Blackgrass plant response rating (0 to 100 scale) ([20]; 500 g ai/ha) | Foxtail, Giant plant response rating (0 to 100 scale) ([22]; 500 g ai/ha) | Kochia plant response rating (0 to 100 scale) ([23]; 500 g ai/ha) | Ryegrass, Italian plant response rating (0 to 100 scale) ([24]; 500 g ai/ha)
10: Amaranth, Palmer plant response rating (0 to 100 scale) ([19]; 125 g ai/ha)
30: Ragweed plant response rating (0 to 100 scale) ([16]; 500 g ai/ha) | Goosegrass plant response rating (0 to 100 scale) ([17]; 125 g ai/ha) | Kochia plant response rating (0 to 100 scale) ([23]; 125 g ai/ha)
50: Corn plant response rating (0 to 100 scale) ([14]; 125 g ai/ha)
60: Ragweed plant response rating (0 to 100 scale) ([3]; 125 g ai/ha) | Horseweed plant response rating (0 to 100 scale) ([12]; 125 g ai/ha) | Ryegrass, Italian plant response rating (0 to 100 scale) ([13]; 125 g ai/ha) | Ryegrass, Italian plant response rating (0 to 100 scale) ([13]; 500 g ai/ha) | Wheat plant response rating (0 to 100 scale) ([18]; 125 g ai/ha) | Ryegrass, Italian plant response rating (0 to 100 scale) ([24]; 125 g ai/ha)
20: Foxtail, Giant plant response rating (0 to 100 scale) ([22]; 125 g ai/ha)
80: Ragweed plant response rating (0 to 100 scale) ([3]; 500 g ai/ha) | Wheat plant response rating (0 to 100 scale) ([5]; 125 g ai/ha) | Wheat plant response rating (0 to 100 scale) ([5]; 500 g ai/ha) | Blackgrass plant response rating (0 to 100 scale) ([7]; 125 g ai/ha) | Soybean plant response rating (0 to 100 scale) ([8]; 500 g ai/ha) | Galium plant response rating (0 to 100 scale) ([9]; 125 g ai/ha) | Galium plant response rating (0 to 100 scale) ([9]; 500 g ai/ha) | Kochia plant response rating (0 to 100 scale) ([11]; 125 g ai/ha) | Horseweed plant response rating (0 to 100 scale) ([12]; 500 g ai/ha) | Oat, Wild plant response rating (0 to 100 scale) ([15]; 125 g ai/ha) | Amaranth, Palmer plant response rating (0 to 100 scale) ([19]; 500 g ai/ha)
0: Ragweed plant response rating (0 to 100 scale) ([16]; 125 g ai/ha) | Soybean plant response rating (0 to 100 scale) ([21]; 125 g ai/ha)
100: Corn plant response rating (0 to 100 scale) ([1]; 125 g ai/ha) | Corn plant response rating (0 to 100 scale) ([1]; 500 g ai/ha) | Oat, Wild plant response rating (0 to 100 scale) ([2]; 500 g ai/ha) | Goosegrass plant response rating (0 to 100 scale) ([17]; 500 g ai/ha) | Wheat plant response rating (0 to 100 scale) ([18]; 500 g ai/ha)
70: Soybean plant response rating (0 to 100 scale) ([8]; 125 g ai/ha) | Soybean plant response rating (0 to 100 scale) ([21]; 500 g ai/ha)
40: Blackgrass plant response rating (0 to 100 scale) ([20]; 125 g ai/ha)
